Laboratory results reported in patent US12497403B2, “Factor XIa inhibitors” (Merck Sharp & Dohme LLC, priority 2021, dated 2025).
Values after ≈ are worked out from the molar mass of the structure shown. Read-outs that look alike come from different tables or passages of the source.

Assays:
[1] = High-throughput (HT) solubility determination; format: physicochemical; details: kinetic from dmso stock
Method: The chromatographic system consists of an Agilent 1290 UPLC/DAD system and ChemStation software, both from Agilent Technologies, USA. The separations are carried out on a Supelco Ascentis Express C18, 30 mm×3.0 mm I.D., 2.7 μm HPLC column. The mobile phase consists of Potassium phosphate buffered at pH 7 (mobile phase A) and acetonitrile (mobile phase B). The column oven temperature is set to 30° C. and the UPLC analysis consists of a gradient. The injection volume is 2 μL and the spectrophotometric detection is set to 215 and 238 nm.
A 10 mM stock solution of the compound in DMSO is supplied for analysis. 2.5 μL of stock solution (10 mM) was diluted into 247.5 μL of organic co-solvents (10% MeCN/80% MeOH/10% DMSO, v/v/v) to create a standard solution of 100 μM. To create the solubility solutions, 4.1 μL of 10 mM DMSO stock solution was diluted into […] of phosphate buffered saline (PBS) (pH 7) solution. A second 4.1 μL aliquot of 10 mM DMSO stock solution was added to 196 μL of PBS (pH 2) solution. A third 4.1 uL aliquot of 10 mM DMSO stock solution was added to 196 uL of FaSSIF (pH 6.5) solution. […] The equilibrated solubility solutions were filtered by centrifugation using a filter (0.45 μm, polypropylene). 50 μL each of the 100 μM standard solution and the filtered equilibrated solubility solutions were placed into a 384 well plate, and the plate was subsequently heat sealed.
Each standard and solubility solution was analyzed by UPLC/DAD. The solubility value was calculated by the following equation: Solubility=(Peak area of sample/Peak area of standard) (Standard concentration)

human Factor XIa = human Factor XIa (Homo sapiens, UniProt P03951); test: Factor XIa assay; format: biochemical; details: human Factor XIa 0.04 nM, GPR-AFC substrate, 25° C., pH 7.4; read-out: FXIa IC50
Sequence of human Factor XIa (P03951 388-625 limits assumed): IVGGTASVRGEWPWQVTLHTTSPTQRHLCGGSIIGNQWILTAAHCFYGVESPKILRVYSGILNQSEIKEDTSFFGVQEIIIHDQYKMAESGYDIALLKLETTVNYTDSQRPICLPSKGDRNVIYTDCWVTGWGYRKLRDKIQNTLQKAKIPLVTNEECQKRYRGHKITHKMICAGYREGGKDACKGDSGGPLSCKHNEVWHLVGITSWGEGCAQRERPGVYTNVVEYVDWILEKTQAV
Sequence of human Factor XIa (P03951 19-387 partner limits assumed): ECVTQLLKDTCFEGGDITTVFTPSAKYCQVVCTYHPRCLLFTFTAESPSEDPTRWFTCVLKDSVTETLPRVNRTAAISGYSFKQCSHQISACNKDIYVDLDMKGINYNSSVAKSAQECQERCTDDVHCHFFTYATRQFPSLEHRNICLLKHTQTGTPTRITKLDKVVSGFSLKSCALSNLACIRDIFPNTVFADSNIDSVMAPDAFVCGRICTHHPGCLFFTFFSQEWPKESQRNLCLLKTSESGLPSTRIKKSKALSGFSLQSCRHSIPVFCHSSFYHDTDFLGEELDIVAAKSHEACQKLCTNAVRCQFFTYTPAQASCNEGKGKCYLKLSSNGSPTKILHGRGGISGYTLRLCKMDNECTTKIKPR
Method: (§1) The effectiveness of a compound of the present invention as an inhibitor of Coagulation Factor XIa can be determined using a relevant purified serine protease, and an appropriate synthetic substrate. The rate of hydrolysis of the chromogenic or fluorogenic substrate by the relevant serine protease was measured both in the absence and presence of compounds of the present invention. Assays were conducted at room temperature or at 37° C. […] A decrease in the rate of fluorescence change in the presence of inhibitor is indicative of enzyme inhibition. Such methods are known to one skilled in the art. The results of this assay are expressed as the half-maximal inhibitory concentrations (IC50), or the inhibitory constant, Ki.
Compounds were pre-incubated for 30 minutes at 25° C. with human (0.04 nM) Factor XIa in 50 mM HEPES buffer with 150 mM sodium chloride, 5 mM calcium chloride, 0.1% PEG 8000, pH 7.4. Factor XIa enzymatic activity was determined by addition of the substrate glycine-proline-arginine-7-amido-4-trifluoromethylcoumarin (GPR-AFC) and measurement of the fluorescence at 400/505 nm after a 60 minute incubation at 25° C. The % inhibition for each data point was calculated from the data and analyzed using the log (inhibitor) vs. response four parameters equation to determine the half-maximal inhibitory concentrations (IC50). The IC50 were converted to equilibrium inhibitory constants (Ki) using the Cheng-Prusoff equation.

Human plasma kallikrein = target: T1, Human plasma kallikrein (Homo sapiens, UniProt P03952); test: Kallikrein assay (plasma kallikrein); format: biochemical; details: purified Human plasma kallikrein 0.5 nM, Acetyl-K-P-R-AFC substrate, pH 7.4; read-out: pKal IC50
T1 construct: yields a heavy chain (371 amino acids) and a light chain (248 amino acids); purchased Enzyme Research Laboratories
T1 sequence (P03952 391-638 limits assumed): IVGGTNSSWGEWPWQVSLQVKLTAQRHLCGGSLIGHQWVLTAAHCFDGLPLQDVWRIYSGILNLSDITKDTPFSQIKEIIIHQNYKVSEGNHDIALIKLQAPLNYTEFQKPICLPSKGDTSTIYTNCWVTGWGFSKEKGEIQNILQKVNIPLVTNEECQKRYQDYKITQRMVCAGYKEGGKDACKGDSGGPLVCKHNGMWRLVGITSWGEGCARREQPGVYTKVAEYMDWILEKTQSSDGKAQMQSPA
T1 sequence (P03952 20-390 partner limits assumed): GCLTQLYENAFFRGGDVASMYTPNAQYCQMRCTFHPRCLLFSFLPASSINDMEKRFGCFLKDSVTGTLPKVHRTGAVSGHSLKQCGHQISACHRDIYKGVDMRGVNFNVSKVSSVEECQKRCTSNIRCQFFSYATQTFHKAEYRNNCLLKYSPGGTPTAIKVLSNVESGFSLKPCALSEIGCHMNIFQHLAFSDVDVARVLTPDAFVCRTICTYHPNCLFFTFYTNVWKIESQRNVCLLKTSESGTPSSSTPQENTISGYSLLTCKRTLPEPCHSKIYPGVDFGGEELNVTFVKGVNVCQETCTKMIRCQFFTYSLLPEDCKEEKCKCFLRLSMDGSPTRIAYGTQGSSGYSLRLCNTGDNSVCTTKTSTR
Method: as §1, with “Kallikrein” for “Coagulation Factor XIa”, “constant.” for “constant,”
Kallikrein determinations were made in 50 mM HEPES buffer at pH 7.4 containing 150 mM NaCl, 5 mM CaCl2, and 0.1% PEG 8000 (polyethylene glycol; Fisher Scientific). Determinations were made using purified Human plasma kallikrein at a final concentration of 0.5 nM (Enzyme Research Laboratories) and the synthetic substrate. Acetyl-K-P-R-AFC (Sigma # C6608) at a concentration of […].
Activity assays were performed by diluting a stock solution of substrate at least tenfold to a final concentration≤ 0.2 Km into a solution containing enzyme or enzyme equilibrated with inhibitor. Times required to achieve equilibration between enzyme and inhibitor were determined in control experiments. The reactions were performed under linear progress curve conditions and fluorescence increase measured at 405 Ex/510 Em nm. Values were converted to percent inhibition of the control reaction (after subtracting 100% Inhibition value). IC50 was determined by inflection point from a four parameter logistic curve fit. Ki was calculated using the Cheng Prusoff equation. Ki=IC50/(1+([S]/Km)).

[2] = FaSSIF pH 6.5, shaken 24 hours at 25° C., read-out: pH 6.5 (FaSSIF) solubility
[3] = phosphate buffered saline (PBS) pH 2, aqueous buffer, PBS pH 2, shaken 24 hours at 25° C., read-out: pH 2 solubility

Row | solubility kinetic at 24 h [1, 2] | solubility kinetic at 24 h [1, 3] | IC50 (human Factor XIa) | IC50 (Human plasma kallikrein) | SMILES
1 | 138 µM (≈ 85.8 µg/mL) | 125 µM (≈ 77.8 µg/mL) | 0.25 nM | 1.1 nM | COC(=O)Nc1ccc2c(c1)NC(=O)C(C)(C)CCC[C@H](c1ccc(-c3cccc(Cl)c3F)c[n+]1[O-])c1nc-2c(C(=O)O)[nH]1 [Example 9, (R,Z)-2-(1^5-carboxy-2^4-((methoxycarbonyl)amino)-5,5-dimethyl-4-oxo-1^1H-3-aza-1(4,2)-imidazola-2(1,2)-benzenacyclononaphane-9-yl)-5-(3-chloro-2-fluorophenyl)pyridine 1-oxide]
2 | 141 µM (≈ 102 µg/mL) | 154 µM (≈ 111 µg/mL) | 0.39 nM | 544 nM | COC(=O)Nc1ccc2c(c1)NC(=O)C(C)(C)CCC[C@H](c1ccc(-c3cc(F)ccc3-n3cc(C(F)(F)F)cn3)c[n+]1[O-])c1nc-2c(C(=O)O)[nH]1 [Example 8, (R,Z)-2-(1^5-carboxy-2^4-((methoxycarbonyl)amino)-5,5-dimethyl-4-oxo-1^1H-3-aza-1(4,2)-imidazola-2(1,2)-benzenacyclononaphane-9-yl)-5-(5-fluoro-2-(4-(trifluoromethyl)-1H -pyrazol-1-yl)phenyl)pyridine 1-oxide]
3 | 170 µM | 145 µM | 0.16 nM | 4.4 nM | COC(=O)Nc1ccc2c(c1)NC(=O)C(C)(C)CCC[C@H](c1ccc(-c3cc(F)ccc3OC(F)F)c[n+]1[O-])c1nc-2c(C(=O)O)[nH]1.N (single isomer, unassigned) [Example 7]
